Experimental data from patent publication US9938281B2 (Merck Sharp & Dohme Corp., priority 2012, dated 2018).

How the values were obtained:
PI3K-delta = target: T1, PI3K-delta (Homo sapiens, UniProt O00329); assay: HTRF PI3K biochemical assay, delta isoform; details: form screened (neutral or TFA salt) given, read-out: PI3Kdelta IC50
T1 construct: purchased Upstate; Millipore 14-604

PI3K-alpha = target: T2, PI3K-alpha (Homo sapiens, UniProt P42336); assay: HTRF PI3K biochemical assay, alpha isoform; details: ratio PI3K-alpha IC50 value / PI3K-delta IC50 value
T2 construct: purchased Upstate; Millipore 14-602
T2 sequence (P42336 whole entry, canonical isoform): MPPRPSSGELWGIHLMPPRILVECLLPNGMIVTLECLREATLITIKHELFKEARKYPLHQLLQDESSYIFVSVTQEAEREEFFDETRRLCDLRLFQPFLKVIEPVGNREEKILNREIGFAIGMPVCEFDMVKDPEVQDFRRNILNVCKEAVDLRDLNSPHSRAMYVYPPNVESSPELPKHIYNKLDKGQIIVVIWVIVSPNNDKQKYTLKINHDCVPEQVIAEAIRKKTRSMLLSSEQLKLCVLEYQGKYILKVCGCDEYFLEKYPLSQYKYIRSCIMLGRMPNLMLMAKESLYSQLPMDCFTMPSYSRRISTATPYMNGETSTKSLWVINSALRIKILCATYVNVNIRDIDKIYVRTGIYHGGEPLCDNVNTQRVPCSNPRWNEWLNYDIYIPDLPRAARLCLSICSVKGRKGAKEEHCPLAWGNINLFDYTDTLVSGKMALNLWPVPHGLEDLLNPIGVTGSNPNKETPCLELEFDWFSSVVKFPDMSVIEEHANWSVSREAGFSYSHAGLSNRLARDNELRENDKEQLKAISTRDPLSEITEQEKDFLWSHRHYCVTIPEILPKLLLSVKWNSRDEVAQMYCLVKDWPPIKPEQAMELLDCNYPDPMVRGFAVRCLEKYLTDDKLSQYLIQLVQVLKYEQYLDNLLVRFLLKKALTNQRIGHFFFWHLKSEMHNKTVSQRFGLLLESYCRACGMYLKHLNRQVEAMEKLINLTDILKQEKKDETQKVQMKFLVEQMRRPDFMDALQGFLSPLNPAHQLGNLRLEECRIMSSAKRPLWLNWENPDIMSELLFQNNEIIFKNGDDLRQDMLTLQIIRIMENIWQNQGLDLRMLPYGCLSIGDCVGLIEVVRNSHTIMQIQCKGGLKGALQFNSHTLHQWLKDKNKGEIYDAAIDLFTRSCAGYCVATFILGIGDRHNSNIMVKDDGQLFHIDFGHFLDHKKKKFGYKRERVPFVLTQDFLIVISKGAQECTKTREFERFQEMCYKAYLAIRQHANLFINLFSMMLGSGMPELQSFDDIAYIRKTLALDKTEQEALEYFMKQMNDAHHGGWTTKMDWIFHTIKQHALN
T2 sequence (P27986 whole entry partner, canonical isoform): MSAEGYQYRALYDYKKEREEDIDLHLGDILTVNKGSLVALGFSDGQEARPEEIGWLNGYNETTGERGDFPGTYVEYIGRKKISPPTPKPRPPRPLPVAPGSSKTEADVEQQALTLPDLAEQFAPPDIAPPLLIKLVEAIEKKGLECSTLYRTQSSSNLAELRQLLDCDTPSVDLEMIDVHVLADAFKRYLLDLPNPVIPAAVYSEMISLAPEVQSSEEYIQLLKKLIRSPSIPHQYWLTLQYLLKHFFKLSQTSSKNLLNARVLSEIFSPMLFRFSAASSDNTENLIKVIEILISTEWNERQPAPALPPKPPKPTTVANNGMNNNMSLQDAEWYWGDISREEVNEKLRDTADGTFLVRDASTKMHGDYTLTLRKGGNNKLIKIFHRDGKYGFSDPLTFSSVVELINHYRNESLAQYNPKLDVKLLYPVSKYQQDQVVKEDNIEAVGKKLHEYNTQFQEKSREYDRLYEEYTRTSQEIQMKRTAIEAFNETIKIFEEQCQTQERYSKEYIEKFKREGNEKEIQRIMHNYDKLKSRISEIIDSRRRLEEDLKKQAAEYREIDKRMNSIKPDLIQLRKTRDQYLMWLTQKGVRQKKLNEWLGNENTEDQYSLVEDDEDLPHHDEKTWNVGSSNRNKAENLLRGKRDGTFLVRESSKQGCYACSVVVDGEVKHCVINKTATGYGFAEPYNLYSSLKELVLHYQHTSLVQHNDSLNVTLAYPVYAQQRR

T1 sequence (O00329 whole entry, canonical isoform): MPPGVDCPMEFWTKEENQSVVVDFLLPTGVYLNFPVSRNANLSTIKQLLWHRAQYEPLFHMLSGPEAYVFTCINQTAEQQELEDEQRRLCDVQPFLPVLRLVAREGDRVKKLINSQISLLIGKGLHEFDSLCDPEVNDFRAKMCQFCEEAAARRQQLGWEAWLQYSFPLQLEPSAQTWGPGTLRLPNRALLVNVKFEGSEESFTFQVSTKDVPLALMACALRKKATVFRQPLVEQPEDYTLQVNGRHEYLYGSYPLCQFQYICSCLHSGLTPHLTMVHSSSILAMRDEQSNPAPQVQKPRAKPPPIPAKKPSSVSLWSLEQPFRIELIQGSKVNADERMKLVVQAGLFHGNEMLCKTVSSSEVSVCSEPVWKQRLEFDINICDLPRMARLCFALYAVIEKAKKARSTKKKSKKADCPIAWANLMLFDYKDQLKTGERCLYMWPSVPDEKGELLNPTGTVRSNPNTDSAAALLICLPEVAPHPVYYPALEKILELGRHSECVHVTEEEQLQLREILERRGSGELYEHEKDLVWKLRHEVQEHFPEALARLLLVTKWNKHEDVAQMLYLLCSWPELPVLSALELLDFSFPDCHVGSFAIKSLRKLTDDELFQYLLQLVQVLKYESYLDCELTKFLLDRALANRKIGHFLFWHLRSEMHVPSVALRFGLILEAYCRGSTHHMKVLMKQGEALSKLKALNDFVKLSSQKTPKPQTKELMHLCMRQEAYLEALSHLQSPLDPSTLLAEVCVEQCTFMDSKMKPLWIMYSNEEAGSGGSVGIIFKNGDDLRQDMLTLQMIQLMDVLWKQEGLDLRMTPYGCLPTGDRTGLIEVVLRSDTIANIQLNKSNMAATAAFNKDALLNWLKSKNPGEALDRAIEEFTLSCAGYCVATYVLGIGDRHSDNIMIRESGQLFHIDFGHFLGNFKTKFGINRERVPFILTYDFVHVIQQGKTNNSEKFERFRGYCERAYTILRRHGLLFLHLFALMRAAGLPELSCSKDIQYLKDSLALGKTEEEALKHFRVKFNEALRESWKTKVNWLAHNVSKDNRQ
T1 sequence (P27986 whole entry partner, canonical isoform): as the sequence (P27986 whole entry partner, canonical isoform) above

Row | IC50 (PI3K-delta) [nM] | Selectivity versus PI3Kalpha (PI3K-alpha) | SMILES
1 | 29 | >10 | CCn1c(-c2cnc(C)nc2)nc2c(N[C@H]3CN[C@@H](C(=O)N(C)C4CC4)C3)ncnc21 [Compound 15-13, (4R)-N-cyclopropyl-4-{[9-ethyl-8-(2-methylpyrimidin-5-yl)-9H-purin-6-yl]amino}-N-methyl-D-prolinamide]
2 | 96 | >10 | CCn1c(-c2cnc(C)nc2)nc2c(NC3CN(C(C)C)CC34CC4)ncnc21 (stereo not shown) [Compound 10-3, (R AND S)-9-ethyl-N-[5-(1-methylethyl)-5-azaspiro[2.4]hept-7-yl]-8-(2-methylpyrimidin-5-yl)-9H-purin-6-amine]
3 | 20 | >10 | CCn1c(-c2cnc(C)nc2)nc2c(N[C@H]3C[C@H](C(=O)N[C@@H](C)C(C)C)N(C(=O)C4CC4)C3)ncnc21 [Compound 15-6, (4S)-1-(cyclopropylcarbonyl)-N-[(1S)-1,2-dimethylpropyl]-4-{[9-ethyl-8-(2-methylpyrimidin-5-yl)-9H-purin-6-yl]amino}-D-prolinamide]
4 | 13 | >10 | CCn1c(-c2cnc(C)nc2)nc2c(NC3CCCC(=O)N(CC4CC4)C3)ncnc21 (single isomer, unassigned) [Compound 14-7, (R or S)-1-(cyclopropylmethyl)-6-{[9-ethyl-8-(2-methylpyrimidin-5-yl)-9H-purin-6-yl]amino}azepan-2-one]
5 | 21 | >10 | CCCN1CC(Nc2ncnc3c2nc(-c2cnc(C)nc2)n3CC)CCC1=O (racemic) [Compound 14-5, 5(S and R)-{[9-ethyl-8-(2-methylpyrimidin-5-yl)-9H-purin-6-yl]amino}-1-propylpiperidin-2-one]
6 | 8.2 | >10 | CCn1c(Oc2ccc(OC)c(F)c2)nc2c(N[C@H]3CCN(C(=O)C4CC4)C3)ncnc21 [Compound 8-6, N-[(3S)-1-(cyclopropylcarbonyl)pyrrolidin-3-yl]-9-ethyl-8-(3-fluoro-4-methoxyphenoxy)-9H-purin-6-amine]
7 | 14 | >10 | CCn1c(-c2cnc(C)nc2)nc2c(N[C@H]3C[C@H](C(=O)N(C)C)N(C(=O)C4CC4)C3)ncnc21 [Compound 15-2, (4S)-1-(cyclopropylcarbonyl)-4-{[9-ethyl-8-(2-methylpyrimidin-5-yl)-9H-purin-6-yl]amino}-N,N-dimethyl-D-prolinamide]
8 | 4.3 | >10 | CCn1c(-c2cnc(C)nc2)nc2c(N[C@H]3CCN(C(=O)OCCCN(C)C)C3)ncnc21 [Compound 13-11, 3-(dimethylamino)propyl (3S)-3-{[9-ethyl-8-(2-methylpyrimidin-5-yl)-9H-purin-6-yl]amino}pyrrolidine-1-carboxylate]
9 | 21 | >10 | CCn1c(-c2cnc(C)nc2)nc2c(N[C@H]3CCN(C(=O)OCC(F)(F)F)C3)ncnc21 [Compound 13-1, 2,2,2-trifluoroethyl (3S)-3-{[9-ethyl-8-(2-methylpyrimidin-5-yl)-9H-purin-6-yl]amino}pyrrolidine-1-carboxylate]
10 | 6.4 | >10 | CCn1c(-c2cnc(C)nc2)nc2c(N[C@H]3CCN(C(=O)NCC4CC4)C3)ncnc21 [Compound 12-7, (3S)-N-(cyclopropylmethyl)-3-{[9-ethyl-8-(2-methylpyrimidin-5-yl)-9H-purin-6-yl]amino}pyrrolidine-1-carboxamide]
11 | 1.7 | >10 | CCn1c(-c2cnc(C)nc2)nc2c(N[C@H]3CCN(C(=O)N4CC[C@H](F)C4)C3)ncnc21 [Compound 12-13, 9-ethyl-N-[(3S)-1-{[(3S)-3-fluoropyrrolidin-1-yl]carbonyl}pyrrolidin-3-yl]-8-(2-methylpyrimidin-5-yl)-9H-purin-6-amine]

Second part, the compound before the results:

Row | SMILES | IC50 (PI3K-delta) [nM] | Selectivity versus PI3Kalpha (PI3K-alpha)
12 | CCn1c(-c2cnc(C)nc2)nc2c(N[C@H]3CCN(C(=O)c4ocnc4C)C3)ncnc21 [Compound 2-74, 9-ethyl-N-{(3S)-1-[(4-methyl-1,3-oxazol-5-yl)carbonyl]pyrrolidin-3-yl}-8-(2-methylpyrimidin-5-yl)-9H-purin-6-amine] | 3.1 | >10
13 | CCn1c(-c2cnc(C)nc2)nc2c(N[C@H]3C[C@H](C(=O)O)N(C(=O)OC(C)(C)C)C3)ncnc21 [Compound 1-18, (4S)-1-(tert-butoxycarbonyl)-4-{[9-ethyl-8-(2-methylpyrimidin-5-yl)-9H-purin-6-yl]amino}-D-proline] | 2 | >10
14 | CCC1CN(C(=O)C2CC2)CC1Nc1ncnc2c1nc(-c1cnc(C)nc1)n2CC (single isomer, unassigned) [Compound 3-20, N-[(3R,4S or 3S,4R)-1-(cyclopropylcarbonyl)-4-ethylpyrrolidin-3-yl]-9-ethyl-8-(2-methylpyrimidin-5-yl)-9H-purin-6-amine] | 3.5 | >10
15 | CCn1c(-c2cnc(C)nc2)nc2c(N[C@H]3CCN(C(=O)C4CC4CF)C3)ncnc21 (mixture of isomers) [Compound 2-37, ((S)-3-((9-ethyl-8-(2-methylpyrimidin-5-yl)-9H-purin-6-yl)amino)pyrrolidin-1-yl)((1S,2S and 1R,2R)-2-(fluoromethyl)cyclopropyl) methanone] | < 1 | >10
16 | CCn1c(-c2cnc(C)nc2)nc2c(N[C@H]3CCN(C(=O)C4(COC)CCC4)C3)ncnc21 [Compound 2-57, 9-ethyl-N-[(3S)-1-{[1-(methoxymethyl)cyclobutyl]carbonyl}pyrrolidin-3-yl]-8-(2-methylpyrimidin-5-yl)-9H-purin-6-amine] | 7.1 | >10
17 | CCn1c(-c2cnc(OC)c(C)c2)nc2c(N[C@H]3CCN(C(=O)C4CCOCC4)C3)ncnc21 [Compound 3A-4, 9-ethyl-8-(6-methoxy-5-methylpyridin-3-yl)-N-[(3S)-1-(tetrahydro-2H-pyran-4-ylcarbonyl)pyrrolidin-3-yl]-9H-purin-6-amine] | < 1 | >10
18 | CCNC(=O)c1nc2c(N[C@H]3CCN(C(=O)C4CC4)C3)ncnc2n1CC [Compound 6-19, 6-{[(3S)-1-(cyclopropylcarbonyl)pyrrolidin-3-yl]amino}-N,9-diethyl-9H-purine-8-carboxamide] | 31 | >10
19 | CCn1c(-c2cnc(C)nc2)nc2c(N[C@@H]3CN(C(=O)C4CC4)C[C@H]3O)ncnc21 (racemic) [Compound 2-96, 1-(cyclopropylcarbonyl)-4-{(3R,4R) and (3S,4S)-[9-ethyl-8-(2-methylpyrimidin-5-yl)-9H-purin-6-yl]amino}pyrrolidin-3-ol] | 6 | >10
20 | CCn1c(C(F)F)nc2c(N[C@H]3CCN(C(=O)[C@H]4C[C@H](OC)C4)C3)ncnc21 [Compound 7-17, 8-(difluoromethyl)-9-ethyl-N-{(3S)-1-[(trans-3-methoxycyclobutyl)carbonyl]pyrrolidin-3-yl}-9H-purin-6-amine] | 74 | >10
21 | CCn1c(-c2cnc(C)nc2)nc2c(N[C@H]3CCN(C(=O)[C@H]4CCCN4C)C3)ncnc21 [Compound 2-42, 9-ethyl-N-[(3S)-1-(1-methyl-D-prolyl)pyrrolidin-3-yl]-8-(2-methylpyrimidin-5-yl)-9H-purin-6-amine] | 29 | >10
22 | CCC(=O)N1CC[C@H](Nc2ncnc3c2nc(-c2cnc(OC)c(C(F)(F)F)c2)n3C)C1 [Compound 3-7, (S)-1-(3-((8-(6-methoxy-5-(trifluoromethyl)pyridin-3-yl)-9-methyl-9H-purin-6-yl)amino)pyrrolidin-1-yl)propan-1-one] | 2.2 | >10
23 | CCn1c(C(=O)N2CCOCC2)nc2c(N[C@H]3CCN(C(=O)C4CC4)C3)ncnc21 [Compound 6-4, N-[(3S)-1-(cyclopropylcarbonyl)pyrrolidin-3-yl]-9-ethyl-8-(morpholin-4-ylcarbonyl)-9H-purin-6-amine] | 140 | >10
24 | CCn1c(CC2CN(S(C)(=O)=O)C2)nc2c(N[C@H]3CCN(C(=O)C4CC4)C3)ncnc21 [Compound 7-25, N-[(3S)-1-(cyclopropylcarbonyl)pyrrolidin-3-yl]-9-ethyl-8-{[1-(methylsulfonyl)azetidin-3-yl]methyl}-9H-purin-6-amine] | 100 | >10
25 | CCn1c(-c2cnc(C)nc2)nc2c(N[C@H]3CCN(C(=O)C4(O)CC4)C3)ncnc21 [Compound 2-66, 1-{[(3S)-3-{[9-ethyl-8-(2-methylpyrimidin-5-yl)-9H-purin-6-yl]amino}pyrrolidin-1-yl]carbonyl}cyclopropanol] | 10 | >10
26 | CCn1c(-c2cnc(C)nc2)nc2c(N[C@H]3CCN(c4ccc(C#N)cn4)C3)ncnc21 [Compound 4-11, 6-[(3S)-3-{[9-ethyl-8-(2-methylpyrimidin-5-yl)-9H-purin-6-yl]amino}pyrrolidin-1-yl]pyridine-3-carbonitrile] | 12 | >10
27 | CCn1c(-c2cnc(C)nc2)nc2c(N[C@H]3C[C@H](C(=O)OC)N(C(=O)C4CC4)C3)ncnc21 [Compound 2-53, methyl (4S)-1-(cyclopropylcarbonyl)-4-{[9-ethyl-8-(2-methylpyrimidin-5-yl)-9H-purin-6-yl]amino}-D-prolinate] | 4.7 | >10
28 | CCn1c(-c2ccc(C(F)(F)F)cc2)nc2c(N[C@H]3CCN(C(=O)OC(C)(C)C)C3)ncnc21 [Compound 1-24, tert-butyl (3S)-3-({9-ethyl-8-[4-(trifluoromethyl)phenyl]-9H-purin-6-yl}amino)pyrrolidine-1-carboxylate] | 1.5 | >10
29 | CCC(=O)N1CCC[C@H](Nc2ncnc3c2nc(-c2cnn(CC)c2C)n3C)C1 [Compound 2-46, 8-(1-ethyl-5-methyl-1H-pyrazol-4-yl)-9-methyl-N-[(3S)-1-propanoylpiperidin-3-yl]-9H-purin-6-amine] | 9.2 | >10
